{"source": "patent US20260078335A1", "about": "“MICROBIAL ENHANCED COMPOSITIONS COMPRISING SURFACTANT BLENDS WHICH OVERCOME ANTAGONISTIC SURFACTANT INCOMPATIBILITY” (Stepan Company, priority 2023, published 2026)", "type_in_all_cases": "cell-based", "key": {"fungi": {"test_system": "fungi", "test": "preservative screening test, fungal", "conditions": "reduction of live count", "method": "A preservative screening study was performed to determine a sufficient amount of preservative to include in selected MEC formulations to provide efficacy against pathogenic bacteria and fungi. […] Test formulations were prepared by adding different preservatives in different amounts to the base formulations. Each test formulation was tested for efficacy against pathogenic organisms using a preservative screening test. For the screening test, microorganisms are grown separately according to industry standards described in PCPC Test Method M-7 “A Rapid Method for Preservation Testing of Water-Miscible Personal Care Products”, and combined as an inoculum challenge prior to introduction to the formulation test sample. The inoculum is added to each test formulation for predetermined time points, and after appropriate nutrition, the test formulations are evaluated for remaining live count. Reduction of live count is calculated against a control, and a sample showing sufficient percent reduction is accepted as an effectively preserved formulation."}, "pathogenic bacteria": {"test_system": "pathogenic bacteria", "test": "preservative screening test, bacterial", "conditions": "reduction of live count", "method": "(§1) A preservative screening study was performed to determine a sufficient amount of preservative to include in selected MEC formulations to provide efficacy against pathogenic bacteria and fungi. The base formulations used in the study were a formulation similar to Composition A from Example 5, but without the spores, and a formulation similar to the Example 14 formulation, but without the spores and 2-phenoxyethanol. Test formulations were prepared by adding different preservatives in different amounts to the base formulations. Each test formulation was tested for efficacy against pathogenic organisms using a preservative screening test. For the screening test, microorganisms are grown separately according to industry standards described in PCPC Test Method M-7 “A Rapid Method for Preservation Testing of Water-Miscible Personal Care Products”, and combined as an inoculum challenge prior to introduction to the formulation test sample. The inoculum is added to each test formulation for predetermined time points, and after appropriate nutrition, the test formulations are evaluated for remaining live count. Reduction of live count is calculated against a control, and a sample showing sufficient percent reduction is accepted as an effectively preserved formulation. Table 4 provides the details of the preservative and amount used in each test formulation and the results of the screen testing."}, "[1]": {"test_system": "pathogenic bacteria and fungi", "test": "preservative screening test, overall result", "method": "as §1"}, "Bacillus spore blend": {"test_system": "Bacillus spore blend", "test": "un-dyed EVOO test for germination and growth", "conditions": "0.2 wt % active surfactant, 1×10^7 CFU/g Bacillus spore blend; 5 days shaking; FIG. 11", "method": "Replicate test compositions were prepared to evaluate the ability of the alkyl sarcosinate and alkyl betaine surfactant blend to overcome the antagonistic incompatibility between each surfactant individually and the bacterial spores. The formulation for testing comprised 20 wt % sodium lauroyl sarcosinate (30% actives), 32 wt % cetyl betaine (30% actives), 3.5 wt % of a commercially available Bacillus spore blend containing 100×10^9 CFU/g Bacillus spores, 4 wt % potassium nitrate, lactic acid (88% active) to adjust the pH to 5.5-6.0, and the remainder water. The test compositions were prepared by diluting the test formulation in water to 0.3% strength, and adding 2 wt % of 3.3 g/L Nutrient Mix (3 g/L Tryptic Soy broth and 0.3 g/L Yeast Extract). Germination and growth of bacterial spores were visually evaluated using an un-dyed EVOO test. […] Growth and biological activity of the microorganism is evident from haze that develops in the test composition, which can be visually detected. […]\nThe test compositions were visually evaluated for germination and growth of the bacterial spores using the un-dyed EVOO test described above, except that the test compositions were photographed after 5 days of orbital-mixer shaking at setting “5”."}, "Bacillus spores": {"test_system": "Bacillus spores"}, "[2]": {"test_system": "beneficial microorganisms", "test": "compatibility with beneficial microorganisms (description, test not specified)", "conditions": "stated in the description, no test details", "method": "Incompatibility between a surfactant and a beneficial microorganism has been investigated in various ways, such as a standard Zone of Inhibition test, a standard agar plating test, or a standard resazurin (7-hydroxy-10-oxidophenoxazin-10-ium-3-one, sodium) (a blue fluorogenic dye) compatibility assay. In a Zone of Inhibition test, microorganisms are grown, cultured, diluted down to target levels, and then applied to a Petri dish containing agar nutrients. Test samples containing the surfactant of interest are diluted and loaded into an agar well created within the agar nutrient. The plates are incubated and microorganism growth is allowed to develop. The test sample diffuses through the agar and, if the surfactant in the test sample has an inhibitory effect on the microorganism, a lack of growth halo will be observed around the sample loaded well. This halo is referred to as the zone of inhibition. The larger the zone, the bigger the effect of inhibition. Major suitability limitations for non-antibiotics test samples for this test method are inherent large dilution of active, agar diffusion challenges, and nutrient media incompatibilities (neutralization, precipitation, etc). Although this method has been used in the medical field for antibiotics very successfully for decades, it has low suitability when testing non-antibiotic samples. In a standard agar plating test, test samples containing the surfactant of interest and microorganisms are exposed, diluted several orders of magnitude, and plated onto a nutritive agar that is incubated. After an incubation period appropriate for the species, the microorganism growth pattern is evaluated against appropriate controls. […] The test samples are incubated and then inspected for colorometric and fluorescence change. Test samples that are blue and have low fluorescence indicate no biological activity and incompatibility between the surfactant and the microorganism. Test samples that are pink and have high fluorescence indicate biological activity and compatibility of the surfactant with the microorganism. […]"}, "[3]": {"conditions": "1.0% active, base formula Example 14, pH 5.0"}, "[4]": {"conditions": "1.5% active, base formula Example 5, pH 6.5-7.0"}, "[5]": {"conditions": "1.5% active, base formula Example 5, pH 9.0"}, "[6]": {"conditions": "1.5% active, base formula Example 14, pH 9.0"}, "[7]": {"conditions": "1.5% active, base formula Example 14, pH N/A"}, "[8]": {"conditions": "resazurin assay, FIG. 1, inhibitory if composition with less than 1.0 g/L surfactant remains blue, no fluorescence"}}, "note": "Like-named read-outs stand apart in the source and are kept apart here.", "data": [{"compound": "O=C(O)c1ccccc1", "note": "[Benzoic Acid]", "values": [{"measurement": "Fungal 24 hours", "setting": "fungi; [3]", "value": 99.6, "unit": "%"}, {"measurement": "Fungal 7 days", "setting": "fungi; [3]", "value": 99.6, "unit": "%"}, {"measurement": "Bacterial 24 hours", "setting": "pathogenic bacteria; [3]", "value": ">99.6", "unit": "%"}, {"measurement": "Bacterial 7 days", "setting": "pathogenic bacteria; [3]", "value": ">99.6", "unit": "%"}, {"measurement": "Result", "setting": "[1]; [3]", "value": "Pass"}]}, {"compound": "lauramine oxide", "values": [{"measurement": "germination and growth of bacterial spores", "setting": "Bacillus spore blend", "value": "strong inhibition"}]}, {"compound": "OCCOc1ccccc1", "note": "[2-phenoxyethanol]", "values": [{"measurement": "Fungal 24 hours", "setting": "fungi; [4]", "value": "<50", "unit": "%"}, {"measurement": "Fungal 7 days", "setting": "fungi; [4]", "value": "<50", "unit": "%"}, {"measurement": "Fungal 24 hours", "setting": "fungi; [5]", "value": 29.3, "unit": "%"}, {"measurement": "Fungal 7 days", "setting": "fungi; [5]", "value": "<50", "unit": "%"}, {"measurement": "Fungal 24 hours", "setting": "fungi; [6]", "value": 75.0, "unit": "%"}, {"measurement": "Fungal 7 days", "setting": "fungi; [6]", "value": 95.6, "unit": "%"}, {"measurement": "Fungal 7 days", "setting": "fungi; [7]", "value": "<50", "unit": "%"}, {"measurement": "Bacterial 24 hours", "setting": "pathogenic bacteria; [4]", "value": "<50", "unit": "%"}, {"measurement": "Bacterial 7 days", "setting": "pathogenic bacteria; [4]", "value": "<50", "unit": "%"}, {"measurement": "Bacterial 24 hours", "setting": "pathogenic bacteria; [5]", "value": 99.4, "unit": "%"}, {"measurement": "Bacterial 7 days", "setting": "pathogenic bacteria; [5]", "value": ">99.6", "unit": "%"}, {"measurement": "Bacterial 24 hours", "setting": "pathogenic bacteria; [6]", "value": 98.4, "unit": "%"}, {"measurement": "Bacterial 7 days", "setting": "pathogenic bacteria; [6]", "value": ">99.6", "unit": "%"}, {"measurement": "Bacterial 7 days", "setting": "pathogenic bacteria; [7]", "value": 87.5, "unit": "%"}, {"measurement": "efficacy against pathogenic bacteria and fungi", "setting": "[1]; 1.5 wt %, even at a pH of 9.0, either base formulation", "value": "not sufficient"}]}, {"compound": "sodium lauryl ether sulfate 2EO [SLES]", "values": [{"measurement": "compatibility with Bacillus spores", "setting": "Bacillus spores; [8]", "value": "inhibitory"}]}, {"compound": "O.O.O=C([O-])CC(O)(CC(=O)[O-])C(=O)[O-].[Na+].[Na+].[Na+]", "note": "[sodium citrate dihydrate]", "values": [{"measurement": "compatibility with the beneficial microorganisms", "setting": "[2]", "value": "compatible"}]}, {"compound": "lauryl alcohol with 8 moles of ethylene oxide [laureth 8EO]", "values": [{"measurement": "compatibility with Bacillus spores", "setting": "Bacillus spores", "value": "inhibitory"}]}, {"compound": "CCCCCCCCCCCCOS(=O)(=O)[O-].[Na+]", "note": "[sodium lauryl sulfate]", "values": [{"measurement": "germination and growth of bacterial spores", "setting": "Bacillus spore blend", "value": "strong inhibition"}]}, {"compound": "O=C([O-])[C@H](O)[C@@H](O)[C@H](O)[C@H](O)CO.[Na+]", "note": "[sodium gluconate]", "values": [{"measurement": "compatibility with the beneficial microorganisms", "setting": "[2]", "value": "compatible"}]}, {"compound": "cocoamidopropyl betaine [CAPB]", "values": [{"measurement": "compatibility with Bacillus spores", "setting": "Bacillus spores; [8]", "value": "inhibitory"}]}, {"compound": "C=CCCCCCCCC(=O)N(C)C", "note": "[STEPOSOL® MET-10U]", "values": [{"measurement": "compatibility with the beneficial microorganisms", "setting": "[2]", "value": "compatible"}]}]}
